Results from US20230250083A1, “CRYSTALS” (NIPPON SHINYAKU CO., LTD., priority 2017, published 2023).

Experiments:
[1] = Crystallization experiment, operation procedure 4 (saturated solution, poor solvent added); assay type: physicochemical; design: key: —: The symbol “-” in Table 1 to Table 3 means that no precipitate was obtained
Experimental: Each of various solvents was added to the Form-I crystal of the present invention (several mg), crystals of the compound A were precipitated according to the following operation procedures, and the crystal form of the precipitated crystals was confirmed. The results of the operation procedures 1 to 3 are shown in Table 1 and Table 2, and the results of the operation procedure 4 are shown in Table 3. The symbol “-” in Table 1 to Table 3 means that no precipitate was obtained. Each of various dissolving solvents (minimum volume) was added to the Form-I crystal of the present invention to prepare a saturated solution. Various poor solvents were added thereto.

[2] = Crystallization experiment, operation procedure 2 (dissolved at 40° C., cooled to 4° C., stirred 3 days); assay type: physicochemical; design: key: —: The symbol “-” in Table 1 to Table 3 means that no precipitate was obtained
Experimental: (§1) Each of various solvents was added to the Form-I crystal of the present invention (several mg), crystals of the compound A were precipitated according to the following operation procedures, and the crystal form of the precipitated crystals was confirmed. The results of the operation procedures 1 to 3 are shown in Table 1 and Table 2, and the results of the operation procedure 4 are shown in Table 3. The symbol “-” in Table 1 to Table 3 means that no precipitate was obtained.
Each of various solvents (50 μL) was added to the Form-I crystal of the present invention to dissolve the Form-I crystal of the present invention at 40° C. […] The solution was cooled to 4° C. and stirred for 3 days.

JAK2 tyrosine kinase = JAK2 tyrosine kinase (Homo sapiens, UniProt O60674); conditions: see PATENT DOCUMENT 1; cited from earlier work
JAK2 tyrosine kinase, sequence (O60674 whole entry): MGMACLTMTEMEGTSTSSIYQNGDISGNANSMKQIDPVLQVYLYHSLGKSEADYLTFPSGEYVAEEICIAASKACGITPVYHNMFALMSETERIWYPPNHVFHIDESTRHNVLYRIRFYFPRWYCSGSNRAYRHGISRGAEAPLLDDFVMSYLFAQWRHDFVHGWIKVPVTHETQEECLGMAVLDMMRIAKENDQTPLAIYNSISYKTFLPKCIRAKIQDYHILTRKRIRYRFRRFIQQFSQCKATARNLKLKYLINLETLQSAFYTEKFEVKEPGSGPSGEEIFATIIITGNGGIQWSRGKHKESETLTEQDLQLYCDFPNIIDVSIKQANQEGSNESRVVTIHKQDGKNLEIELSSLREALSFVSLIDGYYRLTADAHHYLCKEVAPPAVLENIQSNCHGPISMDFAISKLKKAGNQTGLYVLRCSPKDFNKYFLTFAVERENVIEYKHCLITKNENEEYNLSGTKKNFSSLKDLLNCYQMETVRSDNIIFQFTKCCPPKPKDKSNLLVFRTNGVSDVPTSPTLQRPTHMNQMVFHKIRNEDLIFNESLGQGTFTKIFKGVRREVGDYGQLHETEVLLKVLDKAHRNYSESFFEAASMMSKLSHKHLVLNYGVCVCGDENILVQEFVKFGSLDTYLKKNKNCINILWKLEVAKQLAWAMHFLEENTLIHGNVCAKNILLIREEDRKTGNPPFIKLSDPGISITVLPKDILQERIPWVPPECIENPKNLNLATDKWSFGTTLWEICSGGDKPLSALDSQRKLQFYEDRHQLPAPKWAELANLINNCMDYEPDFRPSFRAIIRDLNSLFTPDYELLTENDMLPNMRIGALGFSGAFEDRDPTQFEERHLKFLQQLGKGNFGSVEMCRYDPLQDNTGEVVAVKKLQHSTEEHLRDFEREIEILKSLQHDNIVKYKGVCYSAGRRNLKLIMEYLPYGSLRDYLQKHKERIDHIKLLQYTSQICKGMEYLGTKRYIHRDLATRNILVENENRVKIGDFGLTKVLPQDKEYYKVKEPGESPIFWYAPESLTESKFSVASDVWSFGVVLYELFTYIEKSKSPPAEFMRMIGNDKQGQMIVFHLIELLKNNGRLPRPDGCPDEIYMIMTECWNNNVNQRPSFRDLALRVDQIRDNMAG

[3] = Crystallization experiment, operation procedure 3 (dissolved at 40° C., solvent gradually distilled off at room temperature); assay type: physicochemical; design: key: —: The symbol “-” in Table 1 to Table 3 means that no precipitate was obtained
Experimental: as §1
Each of various solvents (50 μL) was added to the Form-I crystal of the present invention to dissolve the Form-I crystal of the present invention at 40° C. […] The solvent was gradually distilled off at room temperature.

[4] = Crystallization experiment, operation procedure 1 (suspension stirred 2 days, cooled and warmed between 4 to 40° C.); assay type: physicochemical; design: key: —: The symbol “-” in Table 1 to Table 3 means that no precipitate was obtained
Experimental: as §1
Each of various solvents (50 μL) was added to the Form-I crystal of the present invention to make a suspension thereof, and the suspension was stirred for 2 days while repeatedly being cooled and warmed between 4 to 40° C.

[5] = solvent 1,4-dioxane:water 80:20
[6] = solvent acetonitrile:dimethyl sulfoxide 80:20
[7] = solvent acetonitrile:water 80:20
[8] = solvent acetonitrile:water 95:5
[9] = solvent ethanol:dimethyl sulfoxide 80:20
[10] = solvent tetrahydrofuran:water 20:80
[11] = solvent tetrahydrofuran:water 95:5

SMILES: C[C@H](Nc1cc(-c2cnn(C)c2)cc(Nc2cnccn2)n1)c1ccc(F)cc1.O=C(O)/C=C\C(=O)O [compound A, (S)-N^2-[1-(4-fluorophenyl)ethyl]-4-(1-methyl-1H-pyrazol-4-yl)-N^6-(pyrazin-2-yl)pyridine-2,6-diamine maleate]
- Crystal form ([1]; dissolving solvent 2-methoxyethanol, poor solvent cyclohexane): Form-I
- Crystal form ([1]; dissolving solvent 2-methoxyethanol, poor solvent isopropyl acetate): Form-I
- Crystal form ([1]; dissolving solvent 2-methoxyethanol, poor solvent t-butyl methyl ether): Form-I
- Crystal form ([1]; dissolving solvent 2-methoxyethanol, poor solvent water): —
- Crystal form ([1]; dissolving solvent N,N-dimethylformamide, poor solvent 2-propanol): Form-I
- Crystal form ([1]; dissolving solvent N,N-dimethylformamide, poor solvent diethyl ether): Form-I
- Crystal form ([1]; dissolving solvent N,N-dimethylformamide, poor solvent isopropyl acetate): Form-I
- Crystal form ([1]; dissolving solvent N,N-dimethylformamide, poor solvent t-butyl methyl ether): Form-I
- Crystal form ([1]; dissolving solvent N,N-dimethylformamide, poor solvent water): Form-I
- Crystal form ([1]; dissolving solvent N-methylpyrrolidone, poor solvent 2-propanol): Form-I
- Crystal form ([1]; dissolving solvent N-methylpyrrolidone, poor solvent ethyl acetate): Form-I
- Crystal form ([1]; dissolving solvent N-methylpyrrolidone, poor solvent toluene): Form-I
- Crystal form ([1]; dissolving solvent N-methylpyrrolidone, poor solvent water): Form-I
- Crystal form ([1]; dissolving solvent acetone:water 80:20, poor solvent 2-propanol): —
- Crystal form ([1]; dissolving solvent acetone:water 80:20, poor solvent water): Form-II
- Crystal form ([1]; dissolving solvent dimethyl sulfoxide, poor solvent 2-propanol): Form-I
- Crystal form ([1]; dissolving solvent dimethyl sulfoxide, poor solvent diisopropyl ether): —
- Crystal form ([1]; dissolving solvent dimethyl sulfoxide, poor solvent ethyl acetate): Form-I
- Crystal form ([1]; dissolving solvent dimethyl sulfoxide, poor solvent t-butyl methyl ether): Form-I
- Crystal form ([1]; dissolving solvent dimethyl sulfoxide, poor solvent water): —
- Crystal form ([1]; dissolving solvent tetrahydrofuran:water 80:20, poor solvent water): Form-I
- Crystal form ([1]; dissolving solvent trifluoroethanol, poor solvent cyclohexane): —
- Crystal form ([1]; dissolving solvent trifluoroethanol, poor solvent diisopropyl ether): Form-I
- Crystal form ([1]; dissolving solvent trifluoroethanol, poor solvent water): —
- crystal form of the precipitated crystals ([2]; solvent 1,4-dioxane): solvate
- crystal form of the precipitated crystals [2, 5]: —
- crystal form of the precipitated crystals ([2]; solvent 1-butanol): —
- crystal form of the precipitated crystals ([2]; solvent 1-methoxy-2 -propanol): —
- crystal form of the precipitated crystals ([2]; solvent 1-propanol): Form-I
- crystal form of the precipitated crystals ([2]; solvent 2-methoxyethanol): —
- crystal form of the precipitated crystals ([2]; solvent 2-methoxyethyl ether): —
- crystal form of the precipitated crystals ([2]; solvent 2-propanol): —
- crystal form of the precipitated crystals ([2]; solvent 2-propanol:water 80:20): —
- crystal form of the precipitated crystals ([2]; solvent 2-propanol:water 95:5): —
- crystal form of the precipitated crystals ([2]; solvent N,N-dimethylformamide): —
- crystal form of the precipitated crystals ([2]; solvent N-methylpyrrolidone): —
- crystal form of the precipitated crystals ([2]; solvent acetone): Form-I
- crystal form of the precipitated crystals ([2]; solvent acetone:water 20:80): —
- crystal form of the precipitated crystals ([2]; solvent acetone:water 80:20): —
- crystal form of the precipitated crystals ([2]; solvent acetone:water 95:5): —
- crystal form of the precipitated crystals ([2]; solvent acetonitrile): —
- crystal form of the precipitated crystals [2, 6]: —
- crystal form of the precipitated crystals [2, 7]: —
- crystal form of the precipitated crystals [2, 8]: —
- crystal form of the precipitated crystals ([2]; solvent chlorobenzene): —
- crystal form of the precipitated crystals ([2]; solvent chloroform): —
- crystal form of the precipitated crystals ([2]; solvent cyclohexane): —
- crystal form of the precipitated crystals ([2]; solvent cyclohexanone): —
- crystal form of the precipitated crystals ([2]; solvent dichloromethane): —
- crystal form of the precipitated crystals ([2]; solvent dimethyl carbonate): —
- crystal form of the precipitated crystals ([2]; solvent dimethyl sulfoxide): —
- crystal form of the precipitated crystals ([2]; solvent ethanol): Form-I
- crystal form of the precipitated crystals [2, 9]: Form-I
- crystal form of the precipitated crystals ([2]; solvent ethanol:water 20:80): —
- crystal form of the precipitated crystals ([2]; solvent ethyl acetate): —
- crystal form of the precipitated crystals ([2]; solvent heptane): —
- crystal form of the precipitated crystals ([2]; solvent isopropyl acetate): —
- crystal form of the precipitated crystals ([2]; solvent isopropyl ether): —
- crystal form of the precipitated crystals ([2]; solvent methanol): Form-I
- crystal form of the precipitated crystals ([2]; solvent methanol:water 80:20): Form-I
- crystal form of the precipitated crystals ([2]; solvent methanol:water 95:5): —
- crystal form of the precipitated crystals ([2]; solvent methyl acetate): —
- crystal form of the precipitated crystals ([2]; solvent methyl ethyl ketone): —
- crystal form of the precipitated crystals ([2]; solvent methyl isobutyl ketone): —
- crystal form of the precipitated crystals ([2]; solvent nitromethane): —
- crystal form of the precipitated crystals ([2]; solvent t-butyl methyl ether): —
- crystal form of the precipitated crystals ([2]; solvent tetrahydrofuran): —
- crystal form of the precipitated crystals [2, 10]: —
- crystal form of the precipitated crystals [2, 11]: —
- crystal form of the precipitated crystals ([2]; solvent toluene): —
- crystal form of the precipitated crystals ([2]; solvent trifluoroethanol): —
- crystal form of the precipitated crystals ([2]; solvent water): —
- JAK2 tyrosine kinase inhibitory action (JAK2 tyrosine kinase): excellent JAK2 tyrosine kinase inhibitory action
- crystal form of the precipitated crystals ([3]; solvent acetone): —
- crystal form of the precipitated crystals ([3]; solvent acetonitrile): —
- crystal form of the precipitated crystals ([3]; solvent dimethyl sulfoxide): Form-I
- crystal form of the precipitated crystals ([3]; solvent nitromethane): —
- crystal form of the precipitated crystals ([4]; solvent 1,4-dioxane): Form-I
- crystal form of the precipitated crystals [4, 5]: Form-I
- crystal form of the precipitated crystals ([4]; solvent 1-butanol): Form-I
- crystal form of the precipitated crystals ([4]; solvent 1-methoxy-2 -propanol): Form-I
- crystal form of the precipitated crystals ([4]; solvent 1-propanol): Form-I
- crystal form of the precipitated crystals ([4]; solvent 2-methoxyethanol): Form-I
- crystal form of the precipitated crystals ([4]; solvent 2-methoxyethyl ether): Form-I
- crystal form of the precipitated crystals ([4]; solvent 2-propanol): Form-I
- crystal form of the precipitated crystals ([4]; solvent 2-propanol:water 80:20): Form-I
- crystal form of the precipitated crystals ([4]; solvent 2-propanol:water 95:5): Form-I
- crystal form of the precipitated crystals ([4]; solvent N,N-dimethylformamide): —
- crystal form of the precipitated crystals ([4]; solvent N-methylpyrrolidone): —
- crystal form of the precipitated crystals ([4]; solvent acetone): Form-I
- crystal form of the precipitated crystals ([4]; solvent acetone:water 20:80): Form-I
- crystal form of the precipitated crystals ([4]; solvent acetone:water 80:20): Form-I
- crystal form of the precipitated crystals ([4]; solvent acetone:water 95:5): Form-I
- crystal form of the precipitated crystals ([4]; solvent acetonitrile): Form-I
- crystal form of the precipitated crystals [4, 6]: Form-I
- crystal form of the precipitated crystals [4, 7]: Form-I
- crystal form of the precipitated crystals [4, 8]: Form-I
- crystal form of the precipitated crystals ([4]; solvent chlorobenzene): Form-I
- crystal form of the precipitated crystals ([4]; solvent chloroform): Form-I
- crystal form of the precipitated crystals ([4]; solvent cyclohexane): Form-I
- crystal form of the precipitated crystals ([4]; solvent cyclohexanone): Form-I
- crystal form of the precipitated crystals ([4]; solvent dichloromethane): Form-I
- crystal form of the precipitated crystals ([4]; solvent dimethyl carbonate): Form-I
- crystal form of the precipitated crystals ([4]; solvent dimethyl sulfoxide): —
- crystal form of the precipitated crystals ([4]; solvent ethanol): Form-I
- crystal form of the precipitated crystals [4, 9]: Form-I
- crystal form of the precipitated crystals ([4]; solvent ethanol:water 20:80): Form-I
- crystal form of the precipitated crystals ([4]; solvent ethyl acetate): Form-I
- crystal form of the precipitated crystals ([4]; solvent heptane): Form-I
- crystal form of the precipitated crystals ([4]; solvent isopropyl acetate): Form-I
- crystal form of the precipitated crystals ([4]; solvent isopropyl ether): Form-I
- crystal form of the precipitated crystals ([4]; solvent methanol): Form-I
- crystal form of the precipitated crystals ([4]; solvent methanol:water 80:20): Form-I
- crystal form of the precipitated crystals ([4]; solvent methanol:water 95:5): Form-I
- crystal form of the precipitated crystals ([4]; solvent methyl acetate): Form-I
- crystal form of the precipitated crystals ([4]; solvent methyl ethyl ketone): Form-I
- crystal form of the precipitated crystals ([4]; solvent methyl isobutyl ketone): Form-I
- crystal form of the precipitated crystals ([4]; solvent nitromethane): Form-I
- crystal form of the precipitated crystals ([4]; solvent t-butyl methyl ether): Form-I
- crystal form of the precipitated crystals ([4]; solvent tetrahydrofuran): Form-I
- crystal form of the precipitated crystals [4, 10]: Form-I
- crystal form of the precipitated crystals [4, 11]: Form-I
- crystal form of the precipitated crystals ([4]; solvent toluene): Form-I
- crystal form of the precipitated crystals ([4]; solvent trifluoroethanol): —
- crystal form of the precipitated crystals ([4]; solvent water): Form-I
